Reference: US20090123419A1, “TREATMENT OF UTERINE CANCER AND OVARIAN CANCER WITH A PARP INHIBITOR ALONE OR IN COMBINATION WITH ANTI-TUMOR AGENTS” (BiPar Sciences, priority 2007, published 2009)

Experiments:
PARP = PARP activity in tissue samples from OVCAR-3 xenograft model; type: in vivo, SCID mice; settings: after a single dose of BA; for effect on PARP activity in xenograft tissue samples: FIG. 2
Description: The human OVCAR-3 (NIH-OVCAR-3) ovarian adenocarcinoma utilized in the study is maintained in athymic nude mice by serial engraftment. The human SW620 colon adenocarcinoma utilized in the study is maintained in nude mice by serial engraftment.
Whole blood is collected into EDTA vacutainers and human PBMCs are obtained by BD Vacutainer™ CPT™ Cell Preparation kit according to the manufacturer's instructions (BD Vacutainer™, REF 362760). Tumor samples are collected in a sterile container and placed immediately on ice. Within 30 minutes, tumor samples are snap-frozen in liquid nitrogen and stored at −80° C. until homogenized for analysis. The specimen is defrosted on ice and the wet weight is documented. The tissue is homogenized using isotonic buffer [7 mmol/L HEPES, 26 mmol/L KCl, 0.1 mmol/L dextran, 0.4 mmol/L EGTA, 0.5 mmol/L MgCl2, 45 mmol/L sucrose (pH 7.8)]. The homogenate is kept on ice throughout the process, and homogenization is done in 10-second bursts to prevent undue warming of the sample. Unless assayed on the day of homogenization, samples are refrozen to −80° C. and stored at this temperature until analyzed.
Cell preparations are defrosted rapidly at room temperature and washed twice in ice-cold PBS. […] Maximally stimulated PARP activity is measured in replicate samples of 20,000 cells in a reaction mixture containing […] NAD+ and 10 mg/mL oligonucleotide in a reaction buffer of 100 mmol/L Tris-HCl, 120 mmol/L MgCl2 (pH 7.8) in a final volume of […] as described previously (24) at 26° C. in an oscillating water bath. […] Purified PAR standards are loaded onto each membrane ([…] monomer equivalent) to generate a standard curve and allow quantification. […] Chemiluminesence detected during a 5-minute exposure is measured using a Fuji LAS3000 UV Illuminator (Raytek, Sheffield, United Kingdom) and digitized using the imaging software (Fuji LAS Image version 1.1, Raytek). The acquired image is analyzed using Aida Image Analyzer (version 3.28.001), and results are expressed in LAU/mm^2. […]

[1] = Clinical safety experience with BA to date; type: in vivo, human
[2] = Tissue distribution of BA; type: in vivo
[3] = test system: cervical adenocarcinoma Hela cells; test: BrdU cell proliferation assay in Hela cells; type: cell-based, human; settings: BA at various concentrations, FIG. 6
Method: The effect of BA on the proliferation of cervical adenocarcinoma Hela cells is examined. Cell proliferation is assessed by BrdU assay as described herein.
Hela cell is an immortal cell line used in medical research. The cell line was derived from cervical cancer cells. HeLa S3 is a clonal derivative of the parent HeLa line. The HeLa S3 clone has been very useful in the clonal analysis of mammalian cell populations relating to chromosomal variation, cell nutrition, and plaque-forming ability. HeLa cells have been reported to contain human papilloma virus 18 (HPV-18) sequences. Cells are cultured according to the standard protocol (ATCC) in the art. Briefly: 1. Remove and discard culture medium. 2. […] 3. Add 2.0 to 3.0 ml of Trypsin-EDTA solution to flask and observe cells under an inverted microscope until cell layer is dispersed (usually within 5 to 15 minutes). Cells that are difficult to detach may be placed at 37° C. to facilitate dispersal. 4. Add 6.0 to 8.0 ml of complete growth medium and aspirate cells by gently pipetting. 5. Add appropriate aliquots of the cell suspension to new culture vessels. 6. Incubate cultures at 37° C.
BrdU assay is well known in the art. […] The immune complexes are detected by the subsequent substrate reaction via chemiluminescent detection (based on Cell Proliferation ELISA, BrdU Chemiluminescence Protocol from Roche). […]

[4] = Stability of solutions and drug product; type: physicochemical
[5] = Preclinical studies of BA with topotecan
[6] = in vivo
Method: The protocol has been amended to evaluate BA in combination with chemotherapy in specific tumor types.
BA Dosing: • Twice weekly; i.v. infusion • Standard 3+3 design for BA dose escalation • Dose levels studied: 2.0, 2.8, 4.0, 5.6, 8.0, and up to 11.2 mg/kg
Safety, tolerability and MTD of each combination

NC(=O)c1ccc(I)c([N+](=O)[O-])c1 [BA, 4-iodo-3-nitrobenzamide]
effect on PARP activity in xenograft tissue samples (PARP): inhibitory effect | effect on PARP activity in xenograft tissue samples (PARP; listed as 4-iodo-3-nitrobenzamide): inhibition of PARP | duration of inhibitory effect on PARP activity (PARP; hours of observation): at least 8 hours | safety and tolerability [1]: safe and well-tolerated | serious adverse events or grade 3 or 4 toxicities associated with BA [1]: no serious adverse events or grade 3 or 4 toxicities | blood-brain barrier crossing ([2]; in vivo): known to cross the blood-brain barrier | tissue distribution ([2]; including the brain and cerebrospinal fluid (CSF)): distributes rapidly and widely into tissues | proliferation of cervical adenocarcinoma Hela cells [3]: inhibits proliferation | stability of BA dosing solution, time to administration after preparation ([4]; ambient (room) temperature, diluted in 0.9% NS or D5W): ≤ 8 h | permitted storage of BA drug product ([4]; at 25° C., 10 mg/mL in 25% hydroxypropylbetacyclodextrin/10 mM phosphate buffer, pH 7.4): ≤ 24 h | effect on antitumor activity of topotecan [5]: potentiates the antitumor activity of topotecan | potentiation of known toxicities or increased frequency of expected toxicities of cytotoxic regimens [6]: no evidence
